According to patent US12459899B2, “Isoquinolinone derivatives, method for preparing the same, and pharmaceutical composition for preventing or treating poly(ADP-ribose) polymerase-1-related diseases, comprising the same as active ingredient” (DIGMBIO. INC., priority 2019, dated 2025):

Molecular target: PARP-1 (poly[ADP-ribose] polymerase 1) enzyme (Homo sapiens (Human), UniProt P09874)
Experiment: PARP-1 (poly[ADP-ribose] polymerase 1) enzyme inhibitory ability, Trevigen assay kit
Type: biochemical
Settings: 1 nM compound; read-out: PAR P-1 Inhibitory ability at 1 nM
Method in brief: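 Human PARP-1 activity was measured with a Trevigen assay kit in histone-coated 96-well plates rehydrated with 50 μL of 1×PARP buffer for 30 minutes. Enzyme (0.5 unit/well) and compound were preincubated 10 minutes at room temperature, then 25 μL of 1×PARP cocktail with biotinylated NAD and activated DNA was added for 1 hour.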

Sequence of PARP-1 (poly[ADP-ribose] polymerase 1) enzyme (P09874 whole entry): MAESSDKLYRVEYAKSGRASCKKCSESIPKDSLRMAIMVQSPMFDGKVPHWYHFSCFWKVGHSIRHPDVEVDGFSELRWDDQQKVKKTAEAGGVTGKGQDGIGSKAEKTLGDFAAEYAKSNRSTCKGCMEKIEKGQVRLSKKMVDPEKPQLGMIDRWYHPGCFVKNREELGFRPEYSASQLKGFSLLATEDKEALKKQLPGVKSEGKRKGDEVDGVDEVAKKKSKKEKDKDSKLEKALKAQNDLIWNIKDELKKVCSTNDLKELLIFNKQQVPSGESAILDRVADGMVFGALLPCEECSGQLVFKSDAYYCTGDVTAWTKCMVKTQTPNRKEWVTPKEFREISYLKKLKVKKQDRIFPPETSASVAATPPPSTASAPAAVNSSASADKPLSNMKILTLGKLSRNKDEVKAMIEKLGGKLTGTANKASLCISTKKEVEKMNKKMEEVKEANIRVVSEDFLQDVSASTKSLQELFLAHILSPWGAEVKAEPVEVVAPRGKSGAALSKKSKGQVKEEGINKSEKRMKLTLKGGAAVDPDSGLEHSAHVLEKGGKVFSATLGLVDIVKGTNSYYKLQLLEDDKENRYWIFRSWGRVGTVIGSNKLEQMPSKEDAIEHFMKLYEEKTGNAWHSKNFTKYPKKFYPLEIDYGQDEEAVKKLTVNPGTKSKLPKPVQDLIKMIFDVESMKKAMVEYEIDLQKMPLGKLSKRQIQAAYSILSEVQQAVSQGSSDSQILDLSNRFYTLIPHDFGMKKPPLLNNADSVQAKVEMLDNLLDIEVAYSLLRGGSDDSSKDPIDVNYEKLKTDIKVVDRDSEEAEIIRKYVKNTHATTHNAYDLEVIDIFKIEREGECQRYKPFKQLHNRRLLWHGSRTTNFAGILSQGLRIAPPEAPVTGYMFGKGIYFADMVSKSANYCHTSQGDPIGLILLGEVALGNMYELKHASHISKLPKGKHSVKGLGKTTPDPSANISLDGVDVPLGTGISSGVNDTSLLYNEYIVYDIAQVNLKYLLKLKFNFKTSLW

First: N#Cc1ccc(N2CC3CCC(C2)N3CCCc2cc3cccc(F)c3c(=O)[nH]2)nc1 [Example 203, 6-(8-(3-(8-fluoro-1-oxo-1,2-dihydroisoquinolin-3-yl)propyl)3,8-diazabicyclo[3.2.1]octan-3-yl)nicotinonitrile]
Second: N#Cc1ccc(N2CC3CCC(C2)N3CCCc2cc3ccc(F)cc3c(=O)[nH]2)nc1 [Example 204, 6-(8-(3-(7-fluoro-1-oxo-1,2-dihydroisoquinolin-3-yl)propyl)-3,8-diazabicyclo[3.2.1]octan-3-yl)nicotinonitrile]
The inhibition at 0.001 µM of the first is lower: less than 50% for the first, 50 to 80% for the second.

Compared with `Cc1cc(F)cc2c(=O)[nH]c(CCCN3C4CCC3CN(c3ccc(C#N)cn3)C4)cc12` [Example 205, 6-(8-(3-(7-fluoro-5-methyl-1-oxo-1,2-dihydroisoquinolin-3-yl)propyl)-3,8-diazabicyclo[3.2.1]octan-3-yl)nicotinonitrile], `Cc1cc(F)cc2c(=O)[nH]c(CCC(=O)N3C4CCC3CN(c3ccc(C#N)cn3)C4)cc12` [Example 214] is lower in inhibition at 0.001 µM: 50 to 80% for the first, less than 50% for the second.

`N#Cc1ccc(N2CC3CCC(C2)N3C(=O)CCc2cc3cccc(F)c3c(=O)[nH]2)nc1` [Example 206, 6-(8-(3-(8-fluoro-1-oxo-1,2-dihydroisoquinolin-3-yl)propanoyl)-3,8-diazabicyclo[3.2.1]octan-3-yl)nicotinonitrile] and `Cc1ccc(F)c2c(=O)[nH]c(CCC(=O)N3C4CCC3CN(c3ccc(C#N)cn3)C4)cc12` [Example 207, 6-(8-(3-(8-fluoro-5-methyl-1-oxo-1,2-dihydroisoquinolin-3-yl)propanoyl)-3,8-diazabicyclo[3.2.1]octan-3-yl)nicotinonitrile] cannot be ordered by inhibition at 0.001 µM: less than 50% for the first, less than 50% for the second.

`Cc1ccc(F)c2c(=O)[nH]c(CCC(=O)N3C4CCC3CN(c3ccc(F)cc3)C4)cc12` [Example 208, 8-fluoro-3-(3-(3-(4-fluorophenyl)-3,8-diazabicyclo[3.2.1]octan-8-yl)-3-oxopropyl)-5-methylisoquinolin-1(2H)-one] and `Cc1ccc(F)c2c(=O)[nH]c(CCC(=O)N3C4CCC3CN(c3ccc(Cl)cc3)C4)cc12` [Example 210, 3-(3-(3-(4-chlorophenyl)-3,8-diazabicyclo[3.2.1]octan-8-yl)-3-oxopropyl)-8-fluoro-5-methylisoquinolin-1(2H)-one] cannot be ordered by inhibition at 0.001 µM: less than 50% for the first, less than 50% for the second.

`Cc1ccc(F)c2c(=O)[nH]c(CCC(=O)N3C4CCC3CN(c3ccc(F)nc3)C4)cc12` [Example 211, 8-fluoro-3-(3-(3-(6-fluoropyridin-3-yl)-3,8-diazabicyclo[3.2.1]octan-8-yl)-3-oxopropyl)-5-methylisoquinolin-1(2H)-one] and `Cc1ccc(F)c2c(=O)[nH]c(CCC(=O)N3C4CCC3CN(c3ccc(F)cn3)C4)cc12` [Example 212, 8-fluoro-3-(3-(3-(5-fluoropyridin-2-yl)-3,8-diazabicyclo[3.2.1]octan-8-yl)-3-oxopropyl)-5-methylisoquinolin-1(2H)-one] cannot be ordered by inhibition at 0.001 µM: less than 50% for the first, less than 50% for the second.

`Cc1cc(F)cc2c(=O)[nH]c(CCC(=O)N3C4CCC3CN(c3ccc(C#N)cc3)C4)cc12` [Example 213, 4-(8-(3-(7-fluoro-5-methyl-1-oxo-1,2-dihydroisoquinolin-3-yl)propanoyl)-3,8-diazabicyclo[3.2.1]octan-3-yl)benzonitrile] and `Cc1cc(F)cc2c(=O)[nH]c(CCC(=O)N3C4CCC3CN(c3ccc(F)cc3)C4)cc12` [Example 215, 7-fluoro-3-(3-(3-(4-fluorophenyl)-3,8-diazabicyclo[3.2.1]octan-8-yl)-3-oxopropyl)-5-methylisoquinolin-1(2H)-one] cannot be ordered by inhibition at 0.001 µM: less than 50% for the first, less than 50% for the second.

`Cc1cc(F)cc2c(=O)[nH]c(CCC(=O)N3C4CCC3CN(c3ccc(Cl)cc3)C4)cc12` [Example 216, 3-(3-(3-(4-chlorophenyl)-3,8-diazabicyclo[3.2.1]octan-8-yl)-3-oxopropyl)-7-fluoro-5-methylisoquinolin-1(2H)-one] and `Cc1cc(F)cc2c(=O)[nH]c(CCC(=O)N3C4CCC3CN(c3ccc(F)nc3)C4)cc12` [Example 217, 7-fluoro-3-(3-(3-(6-fluoropyridin-3-yl)-3,8-diazabicyclo[3.2.1]octan-8-yl)-3-oxopropyl)-5-methylisoquinolin-1(2H)-one] cannot be ordered by inhibition at 0.001 µM: less than 50% for the first, less than 50% for the second.

`Cc1cc(F)cc2c(=O)[nH]c(CCC(=O)N3C4CCC3CN(c3ccc(F)cn3)C4)cc12` [Example 219, 7-fluoro-3-(3-(3-(5-fluoropyridin-2-yl)-3,8-diazabicyclo[3.2.1]octan-8-yl)-3-oxopropyl)-5-methylisoquinolin-1(2H)-one] and `N#Cc1ccc(N2CC3CCC(C2)N3C(=O)CCc2cc3ccc(F)cc3c(=O)[nH]2)nc1` [Example 220, 6-(8-(3-(7-fluoro-1-oxo-1,2-dihydroisoquinolin-3-yl)propanoyl)3,8-diazabicyclo[3.2.1]octan-3-yl)nicotinonitrile] cannot be ordered by inhibition at 0.001 µM: less than 50% for the first, less than 50% for the second.

Compared with `N#Cc1ccc(N2CCN(CCCc3cc4ncccc4c(=O)[nH]3)CC2)cc1` [Example 221, 4-(4-(3-(5-oxo-5,6-dihydro-1,6-naphthyridin-7-yl)propyl)piperazin-1-yl)benzonitrile], `O=c1[nH]c(CCCN2CCN(c3ccc(F)cc3)CC2)cc2ncccc12` [Example 223, 7-(3-(4-(4-fluorophenyl)piperazin-1-yl)propyl)-1,6-naphthyridin-5(6H)-one] is lower in inhibition at 0.001 µM: 50 to 80% for the first, less than 50% for the second.

`N#Cc1ccc(N2CCN(CCCc3cc4ncccc4c(=O)[nH]3)CC2)nc1` [Example 222, 6-(4-(3-(5-oxo-5,6-dihydro-1,6-naphthyridin-7-yl)propyl)piperazin-1-yl)nicotinonitrile] and `N#Cc1ccc(N2CCN(CCCc3cc4ncccc4c(=O)[nH]3)CC2)cn1` [Example 226, 5-(4-(3-(5-oxo-5,6-dihydro-1,6-naphthyridin-7-yl)propyl)piperazin-1-yl)picolinonitrile] cannot be ordered by inhibition at 0.001 µM: less than 50% for the first, less than 50% for the second.

`O=c1[nH]c(CCCN2CCN(c3cccc(F)c3)CC2)cc2ncccc12` [Example 224, 7-(3-(4-(3-fluorophenyl)piperazin-1-yl)propyl)-1,6-naphthyridin-5(6H)-one] and `O=c1[nH]c(CCCN2CCN(c3ccnc(F)c3)CC2)cc2ncccc12` [Example 227, 7-(3-(4-(2-fluoropyridin-4-yl)piperazin-1-yl)propyl)-1,6-naphthyridin-5(6H)-one] cannot be ordered by inhibition at 0.001 µM: less than 50% for the first, less than 50% for the second.

Compared with `N#Cc1ccc(N2CC3CCC(C2)N3CCCc2cc3ncccc3c(=O)[nH]2)cc1` [Example 225, 4-(8-(3-(5-oxo-5,6-dihydro-1,6-naphthyridin-7-yl)propyl)-3,8-diazabicyclo[3.2.1]octan-3-yl)benzonitrile], `O=c1[nH]c(CCCN2C3CCC2CN(c2ccc(F)cc2)C3)cc2ncccc12` [Example 230] is lower in inhibition at 0.001 µM: greater than 80% for the first, less than 50% for the second.

First: N#Cc1ccc(N2CC3CCC(C2)N3CCCc2cc3ncccc3c(=O)[nH]2)cn1 [Example 229, 5-(8-(3-(5-oxo-5,6-dihydro-1,6-naphthyridin-7-yl)propyl)-3,8-diazabicyclo[3.2.1]octan-3-yl)picolinonitrile]
Second: O=c1[nH]c(CCCN2C3CCC2CN(c2ccc(F)nc2)C3)cc2ncccc12 [Example 233, 7-(3-(3-(6-fluoropyridin-3-yl)-3,8-diazabicyclo[3.2.1]octan-8-yl)propyl)-1,6-naphthyridin-5(6H)-one]
The inhibition at 0.001 µM of the first is lower: less than 50% for the first, 50 to 80% for the second.

`O=c1[nH]c(CCCN2C3CCC2CN(c2ccc(F)cn2)C3)cc2ncccc12` [Example 231, 7-(3-(3-(5-fluoropyridin-2-yl)-3,8-diazabicyclo[3.2.1]octan-8-yl)propyl)-1,6-naphthyridin-5(6H)-one] and `N#Cc1ccc(N2CC3CCC(C2)N3CCCc2cc3ncccc3c(=O)[nH]2)nc1` [Example 232, 6-(8-(3-(5-oxo-5,6-dihydro-1,6-naphthyridin-7-yl)propyl)-3,8-diazabicyclo[3.2.1]octan-3-yl)nicotinonitrile] cannot be ordered by inhibition at 0.001 µM: less than 50% for the first, less than 50% for the second.

`N#Cc1ccc(C2=CCN(CCCc3cc4ncccc4c(=O)[nH]3)CC2)cn1` [Example 234, 1′-(3-(5-oxo-5,6-dihydro-1,6-naphthyridin-7-yl)propyl)-1′,2′,3′,6′-tetrahydro-[3,4′-bipyridine]-6-carbonitrile] and `N#Cc1ccc(C2=CCN(CCCc3cc4ncccc4c(=O)[nH]3)CC2)nc1` [Example 235, 1′-(3-(5-oxo-5,6-dihydro-1,6-naphthyridin-7-yl)propyl)-1′,2′,3′,6′-tetrahydro-[2,4′-bipyridine]-5-carbonitrile] cannot be ordered by inhibition at 0.001 µM: less than 50% for the first, less than 50% for the second.

Compared with `O=c1[nH]c(CCCN2CC=C(c3ccc(F)cc3)CC2)cc2ncccc12` [Example 236, 7-(3-(4-(4-fluorophenyl)-3,6-dihydropyridin-1(2H)-yl)propyl)-1,6-naphthyridin-5(6H)-one], `N#Cc1ccc(C2=CCN(CCCc3cc4ncccc4c(=O)[nH]3)CC2)cc1` [Example 239, 4-(1-(3-(5-oxo-5,6-dihydro-1,6-naphthyridin-7-yl)propyl)-1,2,3,6-tetrahydropyridin-4-yl)benzonitrile] is higher in inhibition at 0.001 µM: less than 50% for the first, 50 to 80% for the second.

`O=c1[nH]c(CCCN2CC=C(c3ccnc(F)c3)CC2)cc2ncccc12` [Example 237, 7-(3-(2′-fluoro-3,6-dihydro-[4,4′-bipyridine]-1(2H)-yl)propyl)-1,6-naphthyridin-5(6H)-one] and `O=c1[nH]c(CCCN2CC=C(c3cccc(F)c3)CC2)cc2ncccc12` [Example 238, 7-(3-(4-(3-fluorophenyl)-3,6-dihydropyridin-1(2H)-yl)propyl)-1,6-naphthyridin-5(6H)-one] cannot be ordered by inhibition at 0.001 µM: less than 50% for the first, less than 50% for the second.

`O=c1[nH]c(CCCN2CC=C(c3ccncc3)CC2)cc2ncccc12` [Example 240, 7-(3-(3,6-dihydro-[4,4′-bipyridine]-1(2H)-yl)propyl)-1,6-naphthyridin-5(6H)-one] showed an inhibition at 0.001 µM of less than 50%.
